In patent publication US11028127B2, “Peptides capable of reactivating p53 mutants” (Yeda Research and Development Co. Ltd., priority 2013, dated 2021):

Tested on: SKBR3 cells expressing endogenous R175H p53
Conditions: SKBR3 ShCon cells, 5 ug/ml, 18 hours
Protocol: FIG. 16 is a bar graph illustrating the effect of the indicated peptides on activation of Mut-p53 by measuring transactivation of p53 target genes as determined by qRT-PCR. SKBR3 ShCon cells and SKBR3 Shp53 cells knocked down for p53 expression were used. The cells were plated in 12-well dishes and the indicated peptides were added directly to the medium at a concentration of 5 ug/ml. 18 hours later cells were harvested, followed by qRT-PCR analysis. Expression level of p21, PUMA and Mdm2 was evaluated. FIG. 16 illustrates the relative fold induction of transcription of the tested genes in the various samples relative to their transcription level in non-treated cells. GAPDH mRNA was measured in parallel as a control.
RNA was obtained using Macherey-Nagel NucleoSpin RNA II Kit on cells pellet according to the manufacturer's protocol. Aliquots of 0.4-1 μg were reverse transcribed using Bio-RT 2000 (Bio-Lab) and random hexamer primers. Quantitative real-time polymerase chain reaction (QRT-PCR) was performed on an ABI 7300 instrument (Applied Biosystems) using PerfeCTa SYBR Green FastMix ROX (Quanta). RT-PCR primers used are presented in Table 1 (primers sequences are presented 5′ to 3′).
The tested peptides were further tested for their effect on p53 target gene expression in SKBR3 cells expressing endogenous R175H p53. […] In essence, these cells were plated in 12-well dishes; the indicated peptides were added directly to the medium at a concentration of 5 ug/ml. 18 hours later cells were harvested, followed by qRT-PCR analysis. Expression level of p21, PUMA and Mdm2 was evaluated. Expression of those genes in non-treated cells is considered background and all results were normalized to it, as well as to GAPDH.

Sequence	transactivation of p53 target genes (p21, PUMA, Mdm2)
WNHHHSTPHPRRRRRRRRRR [pCAP-148]	among the highest transactivation levels
SFILFIRRGRLGRRRRRRRRR [pCAP-144]	among the highest transactivation levels
